This is an account of results in paper PMC5706701, “Development of a homogenous high-throughput assay for inositol hexakisphosphate kinase 1 activity” (PLoS ONE, 2017).

Read-outs that look alike come from different tables or passages of the source.

The target in assay [1] is T1, Human IP6K1 (Homo sapiens, UniProt Q92551).
T1 construct: GST (N, cleaved yes); made in house; host or cells: C43 E. coli, pGEX-6P-2
Kind of assay: IP6K1 inhibition dose-response assay (ADP-Glo Max). Format: biochemical. A general note: ADP-Glo first removes unused ATP, then detects ADP through luciferase.

Assay [2] has as its target T2, human IP6K2 (Homo sapiens, UniProt Q9UHH9).
T2 construct: GST (N, cleaved yes); made in house; host or cells: C43 E. coli, pGEX-6P-2
T2 sequence (Q9UHH9 1-426): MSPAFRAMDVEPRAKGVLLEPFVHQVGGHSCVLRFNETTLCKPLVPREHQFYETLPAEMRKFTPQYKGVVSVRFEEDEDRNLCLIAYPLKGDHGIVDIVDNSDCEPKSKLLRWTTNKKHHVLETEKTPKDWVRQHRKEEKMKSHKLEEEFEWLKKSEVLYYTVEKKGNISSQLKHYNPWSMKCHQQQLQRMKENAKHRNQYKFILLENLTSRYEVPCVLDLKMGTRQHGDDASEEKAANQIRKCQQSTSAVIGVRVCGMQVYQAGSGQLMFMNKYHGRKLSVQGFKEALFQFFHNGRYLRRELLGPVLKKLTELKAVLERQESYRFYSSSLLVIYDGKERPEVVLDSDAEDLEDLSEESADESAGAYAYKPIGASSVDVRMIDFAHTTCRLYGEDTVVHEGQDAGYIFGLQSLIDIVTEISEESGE
Kind of assay: IP6K2 inhibition dose-response assay (ADP-Glo Max). Format: biochemical. The method, then: (§1) Human IP6K1 (NCBI accession# Q92551), human IP6K2 (NCBI accession# Q9UHH9), and human IP6K3 (NCBI accession# Q96PC2) were purified from C43 E. coli transformed with pGEX-6P-2 expression vector containing GST tagged IP6K1, IP6K2, or IP6K3. The bacteria were grown overnight in a starter culture containing LB (Lennox) and 100μg/mL ampicillin (Sigma). The starter culture was diluted 1:100 into LB (Lennox) and allowed to grow to an optical density of 0.8 at 37°C when protein expression was induced with 1mM IPTG (Calbiochem) for 5hrs. The cells were pelleted with 3000RCF at 4°C and frozen at -80°C. Later, the bacteria was re-suspended in lysis buffer (20mM Tris, 200mM NaCl, 5mM DTT, 1% Triton-X, 0.5% IPEGAL, 1mg/mL lysozyme, and 1 protease inhibitor tablet (Sigma) per 100mL buffer, pH 7.4) and rotated on an end over end shaker for 30 min at 4°C followed by sonication. […]
(§2) For the dose response assays, 7–10 serial 3-fold compound dilutions were prepared in DMSO and then each compound was diluted with assay buffer (50mM Tris, 10mM MgCl2, 2.5mM DTT, 0.02% Triton X-100, pH 6.9) to reach the desired inhibitor concentrations in 25% DMSO. […] Luminescence generated was read on a Tecan Infinite M100 Pro plate reader. Samples were run in quadruplicate and the data was analyzed using a […] variable slope inhibition parameter on GraphPad Prism 7. […]

Assay [3] addresses T3, human IP6K3 (Homo sapiens, UniProt Q96PC2).
T3 construct: GST (N, cleaved yes); made in house; host or cells: C43 E. coli, pGEX-6P-2
T3 sequence (Q96PC2 1-410): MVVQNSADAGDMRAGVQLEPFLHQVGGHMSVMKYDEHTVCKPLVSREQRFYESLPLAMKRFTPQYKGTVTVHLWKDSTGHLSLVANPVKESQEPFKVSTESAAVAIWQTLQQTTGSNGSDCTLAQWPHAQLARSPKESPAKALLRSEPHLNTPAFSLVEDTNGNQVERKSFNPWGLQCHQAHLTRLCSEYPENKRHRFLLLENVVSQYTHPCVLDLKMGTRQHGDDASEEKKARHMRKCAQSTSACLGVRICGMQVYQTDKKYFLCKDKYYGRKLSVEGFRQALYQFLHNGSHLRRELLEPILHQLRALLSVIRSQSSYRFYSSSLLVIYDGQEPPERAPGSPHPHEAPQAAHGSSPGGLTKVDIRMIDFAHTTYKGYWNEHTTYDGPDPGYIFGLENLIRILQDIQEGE
Kind of assay: IP6K3 inhibition dose-response assay (ADP-Glo Max). Type of assay: biochemical. The procedure: as §1, §2

The target in assay [4] is T1, Human IP6K1. Kind of assay: IP6K1 high-throughput screen of the Sigma LOPAC (ADP-Glo Max, single point). Format: biochemical.
The subject of assay [5] is enzymes involved in the detection steps of the kit. Kind of assay: Counter-screen against the detection steps of the ADP-Glo Max kit (no enzyme, no IP6). Type of assay: biochemical. The conditions noted are these: 10μM compound, 25μM ADP and 975μM ATP. The method, then:
The Sigma LOPAC was obtained as 10mM DMSO stock solutions from the Johns Hopkins ChemCore facility. Each compound was first diluted to 50μM and 25% DMSO in assay buffer. The inhibition assay was performed as described above with 1μL of compound and 4μL of kinase master mix so that the final compound concentration was 10μM in 5% DMSO. […] Hits were determined based by the Z score, which is calculated as Z = (Xi-Xavg)/Sx, where Xi is the raw measurement on the i^th compound, Xavg and Sx are the mean and the standard deviation, respectively, of all measurements within the plate. Hits identified from the screen were repeated in the assay in quadruplicate for confirmation. These confirmed hits were then tested to determine if they inhibited the enzymes involved in the detection steps of the kit. Possible interference of the compounds was assessed by measuring the degree to which they inhibited the signal produced by a 25μM ADP in the presence of 975μM ATP. This experiment was run as described above for the inhibition assays in the absence of enzyme and IP6.
A general note: Counterscreens check selectivity or assay interference.

Assay [6] deals with T1, Human IP6K1. Kind of assay: Inositol polyphosphate separation by PAGE (5PP-IP5 production by IP6K1). Type of assay: biochemical. The conditions noted are these: 10μM inhibitor, 1mM ATP, 250μM IP6, 60nM IP6K1, 2 hours, 37°C.
Assay [7] has as its target T1, Human IP6K1. Kind of assay: IP6K1 kinetic assay (ADP-Glo Max, Michaelis-Menten). Format: biochemical. The conditions noted are these: 400μM IP6, ATP 31.25μM to 2mM, 15ng IP6K1, 15 minutes. The procedure:
IP6K1 activity was measured using the ADP-Glo Max kit (Promega). […] Reactions were quenched with 5μL of Promega ADP-Glo reagent to deplete the remaining ATP at the corresponding time points and incubated for 1hr at room temperature in the dark. […] Luminescence was detected with a Tecan Infinite […] plate reader. The amount of ADP produced by IP6K1 was determined by correlating the observed luminescence to a luminescence signal standard curve generated from various concentrations of ADP. A new standard curve was generated for each concentration of ATP tested such that the total amount of nucleotides (ATP+ADP) at every point on the curve was equal to the concentration of ATP used in the experiment. Standard curves typically began with 100μM or 50μM ADP and were serially 2-fold diluted 8 times. […] Nonlinear regressions and curve fitting to the Michaelis-Menten equation were performed in GraphPad Prism 7. […] The ADP production at […] was measured. The initial reaction velocity (V0) was calculated and plotted with each ATP condition. GraphPad Prism 7 was used to run the non-linear regression and fit the data to the Michaelis-Menten equation. […] The Michaelis-Menten constants when IP6 is the varied substrate were unable to be determined.

Assay [8] relates to IP6K1. Also on record: method as in PMID 8633060. The conditions noted are these: 3H-PP-IP5 production with 3H-IP6 as substrate; read-out: Km of ATP for IP6K1; cited from earlier work.
The mark [9] stands for this setting: LOPAC single-point screen, ADP-Glo Max luminescence raw signal per well.
[10] abbreviates: LOPAC single-point screen, Z-score relative to plate average and StDev.
[11] abbreviates: LOPAC single-point screen, ADP-Glo Max raw signal per well.
Where [12] appears, read: LOPAC single-point screen, Z-score against plate average and StDev.
Where [13] appears, read: LOPAC single-point screen, Z-score from raw signal with plate average and StDev.
[14] abbreviates: LOPAC single-point screen, Z-score from plate average and StDev.

T1 sequence (Q92551 whole entry): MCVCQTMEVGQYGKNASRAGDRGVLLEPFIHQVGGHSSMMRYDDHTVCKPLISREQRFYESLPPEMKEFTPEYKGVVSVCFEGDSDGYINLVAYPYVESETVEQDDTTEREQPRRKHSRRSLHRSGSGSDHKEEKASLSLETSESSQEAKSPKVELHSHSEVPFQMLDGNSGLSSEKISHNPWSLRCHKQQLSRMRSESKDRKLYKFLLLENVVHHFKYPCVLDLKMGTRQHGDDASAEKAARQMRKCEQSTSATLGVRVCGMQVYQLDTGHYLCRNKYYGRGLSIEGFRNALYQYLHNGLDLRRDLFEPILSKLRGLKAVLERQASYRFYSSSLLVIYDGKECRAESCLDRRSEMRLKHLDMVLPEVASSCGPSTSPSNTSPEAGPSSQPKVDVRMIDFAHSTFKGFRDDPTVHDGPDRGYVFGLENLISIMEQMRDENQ

On to `NC(Cc1cc(O)c(O)cc1O)C(=O)O` (racemic) [6-Hydroxy-DL-Dopa], for which the IC50 in assay [1] came out at 1840 ± 1030 nM; in assay [2], 1.66 ± 1.06 µM; in assay [3], 11.1 ± 1.13 µM. Moreover, the “Raw Signal” value in assay [4] (setting [9]) was 10170. The compound also gave a Z-score in assay [4] (setting [10]) of -9.138. The “Signal loss in counter-screen of detection steps” value in assay [5] was “neither TNP nor 6-Hydroxy-DL-Dopa showed significant signal loss”. Further, the “Inhibition of 5PP-IP5 production by IP6K1 (PAGE, Toluidine Blue)” value in assay [6] is “inhibited below the limit of detection”.
As for `Nc1ncnc2c1ncn2[C@@H]1O[C@H](COP(=O)(O)OP(=O)(O)OP(=O)(O)O)[C@@H](O)[C@H]1O` [ATP], in assay [7], the Km is 382 ± 44 µM and the “Vmax for ATP” value was 1116 ± 41 nmol/min/mg. Also, the Km in assay [8] was 1 mM.
As for `O=c1c(O)c(-c2cc(O)c(O)c(O)c2)oc2cc(O)cc(O)c12` [Myricetin], the IC50 in assay [2] (1mM ATP, 100μM IP6, 7.5nM IP6K2, 30 minutes, 37°C, read-out: IC50 IP6K2) amounted to 23.4 ± 1.1 µM; in assay [3] (1mM ATP, 100μM IP6, 120nM IP6K3, 120 minutes, 37°C, read-out: IC50 IP6K3), 4.93 ± 1.14 µM. Also, the “Raw Signal” value in assay [4] (setting [9]) turned out to be 8540. In addition, the “Inhibition of enzyme activity in initial LOPAC screen” value in assay [4] (single point 100μM compound, 62.5μM ATP) is reported as 100%. In addition, the “Signal loss in counter-screen of detection steps” value in assay [5] is on record as “significantly inhibit the secondary reagents”.
Take (-)-3-Methoxynaltrexone hydrochloride: the “Raw Signal” value in assay [4] (setting [11]) is 54969. The compound also gave a Z-score in assay [4] (setting [12]) of 0.0967.
Take Adenosine 3 ,5 -cyclic monophosphate: in assay [4], the “Raw Signal” value is reported as 66195 and the Z-score stood at 1.459.
As to Foliosidine, the “Raw Signal” value in assay [4] (setting [11]) was determined as 53530. Further, the Z-score in assay [4] (setting [13]) is -0.3325.
In the case of JL-18, the “Raw Signal” value in assay [4] (setting [9]) was determined as 64215. Also, in assay [4] (setting [14]), the Z-score was found to be 1.65.
For the compound L-Methionine sulfoximine, in assay [4], the “Raw Signal” value is on record as 58334 and the Z-score is on record as 0.6621.
For LY-310,762 hydrochloride, the “Raw Signal” value in assay [4] (setting [11]) was 55045. Besides, the Z-score in assay [4] (setting [12]) amounted to 0.1095.
On to LY-367,265, for which, in assay [4] (setting [9]), the “Raw Signal” value was 62501. For the same compound, the Z-score in assay [4] (setting [14]) came out at 1.362.
Turning to MDL 26,630 trihydrochloride, the “Raw Signal” value in assay [4] (setting [11]) came out at 53612. This compound also gave a Z-score in assay [4] (setting [13]) of -0.1313.
Consider NS 521 oxalate, for which, in assay [4] (setting [11]), the “Raw Signal” value was 56111. In assay [4] (setting [12]), this compound returned a Z-score of 0.2886.
As to Oligomycin A, the “Raw Signal” value in assay [4] (setting [11]) was determined as 55071. Further, the Z-score in assay [4] (setting [12]) is listed as 0.1138.
Regarding Picrotoxin, in assay [4] (setting [10]), the Z-score is listed as -0.5599.
Take R(-)-Me5: the “Raw Signal” value in assay [4] (setting [11]) is recorded as 53002. This compound came in with a Z-score in assay [4] (setting [13]) of -0.2338.
Turning to R(-)-SCH-12679 maleate, the “Raw Signal” value in assay [4] (setting [9]) turned out to be 53479. In assay [4] (setting [10]), this compound registered a Z-score of -0.4944.
As to Ro 20-1724, the “Raw Signal” value in assay [4] (setting [9]) is recorded as 54602. The Z-score in assay [4] (setting [10]) was -0.5832.
For S(-)-DS 121 hydrochloride, the “Raw Signal” value in assay [4] (setting [11]) amounted to 56472. The compound also registered a Z-score in assay [4] (setting [12]) of 0.265.
For the compound S(-)-UH-301 hydrochloride, the “Raw Signal” value in assay [4] (setting [11]) came to 55198. In addition, the Z-score in assay [4] (setting [13]) is -0.1604.
S-Nitroso-N-acetylpenicillamine: the “Raw Signal” value in assay [4] (setting [11]) was determined as 52205. In assay [4] (setting [13]), this compound yielded a Z-score of -0.3677.
In the case of SKF 83565 hydrobromide, the “Raw Signal” value in assay [4] (Sigma LOPAC single-point screen, ADP-Glo Max raw signal per well) was 61448. The Z-score in assay [4] (Sigma LOPAC single-point screen, Z-score from plate average and StDev) came to 1.054.

As a reminder, the IC50 is the concentration that inhibits the measured activity by half. The Km is the concentration of substrate that gives half-maximal velocity.
